Source: ChEMBL document CHEMBL4350985, “1,3-Dioxane as a scaffold for potent and selective 5-HT1AR agonist with in-vivo anxiolytic, anti-depressant and anti-nociceptive activity” (Eur J Med Chem, 2019)
One block for each molecule: values may come before it. Activity calls are given as the source filed them. The calls are words filed in the database; no cut-off is given here.

What was measured:
[1] = target: T1, Alpha-1B adrenergic receptor (Rattus norvegicus) (UniProt P15823); test: Antagonist activity at alpha-1b adrenergic receptor in Wistar rat spleen assessed as inhibition of (-)-phenylephrine-induced contraction; type: tissue-based
T1 sequence (whole entry): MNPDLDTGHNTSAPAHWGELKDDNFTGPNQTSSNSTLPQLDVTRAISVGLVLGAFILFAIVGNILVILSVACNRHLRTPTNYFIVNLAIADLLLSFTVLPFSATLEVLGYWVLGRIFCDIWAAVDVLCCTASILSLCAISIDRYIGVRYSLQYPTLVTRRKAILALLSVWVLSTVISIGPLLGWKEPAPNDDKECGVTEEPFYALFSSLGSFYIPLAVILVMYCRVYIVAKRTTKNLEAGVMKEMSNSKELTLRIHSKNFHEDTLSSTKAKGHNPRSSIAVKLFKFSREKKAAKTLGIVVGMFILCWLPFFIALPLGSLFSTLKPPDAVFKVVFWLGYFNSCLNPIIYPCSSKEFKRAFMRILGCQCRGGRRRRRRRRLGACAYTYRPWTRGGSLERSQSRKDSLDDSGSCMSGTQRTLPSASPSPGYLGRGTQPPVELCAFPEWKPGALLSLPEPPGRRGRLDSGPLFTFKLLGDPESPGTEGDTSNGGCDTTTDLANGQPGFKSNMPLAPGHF

[2] = target: T2, Alpha-1D adrenergic receptor (Homo sapiens, UniProt P25100); test: biochemical
T2 sequence (P25100 whole entry): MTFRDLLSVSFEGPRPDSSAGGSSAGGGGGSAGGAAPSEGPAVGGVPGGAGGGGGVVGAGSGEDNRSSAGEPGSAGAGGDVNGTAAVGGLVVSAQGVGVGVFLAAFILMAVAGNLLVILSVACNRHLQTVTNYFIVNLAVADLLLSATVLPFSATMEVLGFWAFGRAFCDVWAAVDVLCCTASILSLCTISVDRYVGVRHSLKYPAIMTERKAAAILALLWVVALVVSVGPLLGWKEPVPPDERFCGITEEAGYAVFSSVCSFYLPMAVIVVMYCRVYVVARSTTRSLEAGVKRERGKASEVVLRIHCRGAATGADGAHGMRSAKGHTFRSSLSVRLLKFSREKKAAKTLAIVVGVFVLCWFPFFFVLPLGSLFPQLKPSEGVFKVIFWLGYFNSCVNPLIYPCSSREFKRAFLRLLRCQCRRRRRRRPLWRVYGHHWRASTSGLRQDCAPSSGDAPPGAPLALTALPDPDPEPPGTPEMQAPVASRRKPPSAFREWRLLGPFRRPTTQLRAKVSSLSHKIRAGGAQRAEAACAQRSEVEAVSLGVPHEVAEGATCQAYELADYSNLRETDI
Description: Displacement of [3H] prazosin from human cloned adrenoceptor alpha 1D expressed in CHO cell membrane incubated for 30 mins by liquid scintillation counter

Rattus norvegicus [3] = test: Anxiolytic activity at Sprague-Dawley rat assessed as increase in time spent in open arm at 20 mg/kg, po by EPM test relative to control; type: functional
[4] = Cmax in Sprague-Dawley rat plasma at 10 mg/kg, po measured upto 480 mins by LC/MS-MS analysis; type: ADME, organism-based; design: dose 10 mg/kg, route oral
Rattus norvegicus [5] = test: Anxiolytic activity at Sprague-Dawley rat assessed as decrease in time spent in closed arm at 5 to 20 mg/kg, po by EPM test; type: functional, organism-based
[6] = Ratio of compound t1/2 to 8-OH-DPAT t1/2 in Sprague-Dawley rat plasma at 10 mg/kg, po measured upto 480 mins by LC/MS-MS analysis; type: ADME, organism-based; conditions: in vivo, 8 h
[7] = Tmax in Sprague-Dawley rat brain at 10 mg/kg, po measured upto 480 mins by LC/MS-MS analysis; type: ADME, organism-based
Homo sapiens = species on record: Homo sapiens; test: Selectivity ratio of pKi for human cloned 5HT-1AR transfected in HeLa cells to pKi for human cloned adrenoceptor alpha 1D expressed in CHO cell membrane; type: cell-based
Rattus norvegicus [8] = test: Effect on locomotory activity in Sprague-Dawley rat assessed as distance travelled at 10 mg/kg, po by open field test; type: functional, organism-based
Rattus norvegicus [9] = test: Anxiolytic activity at Sprague-Dawley rat assessed as increase in time spent in open arm at 10 mg/kg, po by EPM test relative to control; type: functional
Rattus norvegicus [10] = test: Antidepressant activity in Sprague-Dawley rat assessed as decrease in time of immobilization at 10 and 20 mg/kg, po by forced swim test; type: functional, organism-based
[11] = Efflux ratio of apparent permeability from basolateral to apical side over apical to basolateral side in dog MDCK2-MDR1 cells incubated for 120 mins by UV-visible spctrophotometry; type: ADME, cell-based, Canis lupus familiaris; conditions: MDCK-MDR1
Mus musculus = test: Antinociceptive activity in formalin-induced nociception pain Swiss […] mouse model assessed as decrease in perception of II phase of noxious stimulus at 10 mg/kg, ip by formalin test; type: functional, organism-based
[12] = Apparent permeability from apical to basolateral side in dog MDCK2-MDR1 cells incubated for 120 mins by UV-visible spectrophotometry; type: ADME, cell-based, Canis lupus familiaris; conditions: MDCK-MDR1
[13] = Cmax in Sprague-Dawley rat brain at 10 mg/kg, po measured upto 480 mins by LC/MS-MS analysis; type: ADME, organism-based; design: dose 10 mg/kg, route oral; conditions: in vivo, 8 h
Rattus norvegicus [14] = test: Anxiolytic activity in at Sprague-Dawley rat assessed as increase in number of entries into central area of open field at 10 mg/kg, po by open field test; type: functional, organism-based
[15] = Half life in Sprague-Dawley rat brain at 10 mg/kg, po measured after 15 to 45 mins by LC/MS-MS analysis; type: ADME, organism-based
[16] = AUC (0 to t) in Sprague-Dawley rat brain at 10 mg/kg, po measured upto 480 mins by LC/MS-MS analysis; type: ADME, organism-based; conditions: in vivo, 8 h
Rattus norvegicus [17] = test: Antidepressant activity in Sprague-Dawley rat assessed as time spent on climbing at 5 to 20 mg/kg, po by forced swim test; type: functional, organism-based
Rattus norvegicus [18] = test: Antidepressant activity in Sprague-Dawley rat assessed as increase in time spent in swimming at 10 and 20 mg/kg, po by forced swim test; type: functional, organism-based
SH-SY5Y [19] = test: Neuroprotective activity against oligomycin A-induced cell death in human SH-SY5Y cells at 1 uM incubated for 24 hrs by MTT assay; type: functional
SH-SY5Y [20] = test: Cytotoxicity against human SH-SY5Y cells assessed as reduction in cell viability incubated for 24 hrs by MTT assay; type: cell-based
SH-SY5Y [21] = test: Neuroprotective activity against H2O2-induced cell death in human SH-SY5Y cells at 0.1 uM incubated for 24 hrs by MTT assay; type: functional
[22] = AUC (0 to infinity) in Sprague-Dawley rat brain at 10 mg/kg, po measured upto 480 mins by LC/MS-MS analysis; type: ADME, organism-based; design: dose 10 mg/kg, time infinity, route oral; conditions: in vivo, 8 h
SH-SY5Y [23] = test: Neuroprotective activity against oligomycin A-induced cell death in human SH-SY5Y cells at 0.1 uM incubated for 24 hrs by MTT assay; type: functional
SH-SY5Y [24] = test: Neuroprotective activity against rotenone-induced cell death in human SH-SY5Y cells at 0.1 uM incubated for 24 hrs by MTT assay; type: functional
[25] = Ratio of drug level in brain to plasma in Sprague-Dawley rat at 10 mg/kg, po measured upto 480 mins by LC/MS-MS analysis; type: ADME, organism-based; conditions: read-out: BPR

Structure (SMILES): c1ccc(OCCNCC2CCOC(c3ccccc3)(c3ccccc3)O2)cc1 (configuration not stated)
pKb [1]: 6.97 | Ki [2]: 5.01 nM

Structure (SMILES): c1ccc(OCCNCCOC(c2ccccc2)c2ccccc2)cc1
pKb [1]: 7.01 | Ki [2]: 1.2 nM

Structure (SMILES): c1ccc(OCCNCC2COC(c3ccccc3)(c3ccccc3)OC2)cc1
pKb [1]: 6.76 | Ki [2]: 178 nM

Structure (SMILES): COc1ccccc1OCCNCC1COC(c2ccccc2)(c2ccccc2)OC1.O=C(O)C(=O)O
Activity (Rattus norvegicus [3]): 18% | Cmax [4]: 95 nM | inhibition (Rattus norvegicus [5]): Active | Ratio [6]: 3 | Tmax [7]: 60 min | Ratio pKi (Homo sapiens): 16 | Activity (Rattus norvegicus [8]): inactive | Activity (Rattus norvegicus [9]): 20% | inhibition (Rattus norvegicus [10]): Active | efflux ratio at 2 h [11]: 0.49 | inhibition (Mus musculus): Active | Papp A→B at 2 h [12]: 26 ×10⁻⁶ cm/s | Cmax [13]: 157.9 nmol/g | Activity (Rattus norvegicus [14]): Active | half-life [15]: 6.2 min | pKb [1]: 6.8 | AUCt [16]: 7167.6 nmol·min/g | Activity (Rattus norvegicus [17]): inactive | Activity (Rattus norvegicus [18]): Active | Activity (SH-SY5Y [19]): 83% | IC50 (SH-SY5Y [20]): 31200 nM | Activity (SH-SY5Y [21]): 89% | Ki [2]: 25.1 nM | AUC [22]: 7173.4 nmol·min/g | Activity (SH-SY5Y [23]): 69% | Activity (SH-SY5Y [24]): 63% | Kp at 8 h [25]: 420

Structure (SMILES): COc1ccccc1OCCNCC1CCOC(c2ccccc2)(c2ccccc2)O1 (configuration not stated)
pKb [1]: 7.19 | Ki [2]: 1.02 nM

Structure (SMILES): OCC(CNCCOc1ccccc1)OC(c1ccccc1)c1ccccc1 (configuration not stated)
pKb [1]: 6.98 | Ki [2]: 57.5 nM

Continued, values first:

pKb [1]: 7.02 | Ki [2]: 5.89 nM
Structure (SMILES): COc1ccccc1OCCNCC(CO)OC(c1ccccc1)c1ccccc1 (configuration not stated)

pKb [1]: 6.93 | Ki [2]: 5.75 nM
Structure (SMILES): COc1ccccc1OCCNCCC1COC(c2ccccc2)(c2ccccc2)O1 (configuration not stated)

pKb [1]: 7.11 | Ki [2]: 10 nM
Structure (SMILES): COc1ccccc1OCCNCCOC(c1ccccc1)c1ccccc1

pKb [1]: 6.91 | Ki [2]: 16.6 nM
Structure (SMILES): COc1ccccc1OCCNCC[C@@H]1CO[C@H](C(c2ccccc2)c2ccccc2)O1 (relative stereo)

pKb [1]: 7.13 | Ki [2]: 15.8 nM
Structure (SMILES): COc1ccccc1OCCNCC[C@H]1CO[C@H](C(c2ccccc2)c2ccccc2)O1 (relative stereo)
